Reference: ChEMBL document CHEMBL1127373 (J Med Chem, 1994)
pKi: −log10 of the molar value.

Biological target: Neuronal acetylcholine receptor
Experiment: Tested for the binding affinity against neuronal nicotinic acetylcholine receptors from whole rat brain

Q: How did the pKi turn out when `CC[C@H]1C[C@@H](c2cccnc2)N(C)C1` was run?
A: 7.30

Q: With `C[C@H]1CC[C@@H](c2cccnc2)N1C` as the molecule, how does the pKi read?
A: 7.46

Q: With `CN1C[C@@H](CF)C[C@H]1c1cccnc1` as the molecule, how does the pKi read?
A: 7.95

Q: `CN1[C@H](c2ccccc2)CC[C@H]1c1cccnc1` was tested. Which pKi did it give?
A: 5.47

Q: `CN1C[C@@H](O)C[C@H]1c1cccnc1` was tested. Which pKi did it give?
A: 7.56

Q: `C[C@@H]1CC[C@@H](c2cccnc2)N1C` was tested. Which pKi did it give?
A: 5.92

Q: With `CN1C[C@@H](CO)C[C@H]1c1cccnc1` as the molecule, how does the pKi read?
A: 6.80

Q: How did the pKi turn out when `CN1CCC(CF)[C@H]1c1cccnc1` (some centres not stated) was run?
A: 7.01

Q: How did the pKi turn out when `COCC1CCN(C)[C@@H]1c1cccnc1` (some centres not stated) was run?
A: 5.69

Q: `CSC[C@H]1C[C@@H](c2cccnc2)N(C)C1` was tested. Which pKi did it give?
A: 6.31

Q: With `CN1C[C@@H](OS(C)(=O)=O)C[C@H]1c1cccnc1` as the molecule, how does the pKi read?
A: 6.44

Q: How did the pKi turn out when `COC[C@H]1C[C@@H](c2cccnc2)N(C)C1` was run?
A: 6.29

Q: With `CN1C[C@H](C#N)C[C@H]1c1cccnc1` as the molecule, how does the pKi read?
A: 7.09

Q: `CCCC[C@@H]1CC[C@@H](c2cccnc2)N1C` was tested. Which pKi did it give?
A: 5.86

Q: `CN1CCC(CO)[C@H]1c1cccnc1` (some centres not stated) was tested. Which pKi did it give?
A: 6.21

Q: `CO[C@H]1C[C@@H](c2cccnc2)N(C)C1` was tested. Which pKi did it give?
A: 7.44

Q: How did the pKi turn out when `CN1C[C@@H](CC#N)C[C@H]1c1cccnc1` was run?
A: 7.28

Q: How did the pKi turn out when `CC1CN(C)[C@H](c2cccnc2)C1C` (some centres not stated) was run?
A: 7.02

Q: How did the pKi turn out when `CC(=O)O[C@H]1C[C@@H](c2cccnc2)N(C)C1` was run?
A: 6.99

Q: With `CN1C[C@@H](Cc2ccccc2)C[C@H]1c1cccnc1` as the molecule, how does the pKi read?
A: 6.92

Q: How did the pKi turn out when `CN1C[C@H](CO)C[C@H]1c1cccnc1` was run?
A: 6.53

Q: `CN1[C@@H](c2ccccc2)CC[C@H]1c1cccnc1` was tested. Which pKi did it give?
A: 5.91
